Values after ≈ are worked out from the molar mass of the structure shown.

One data set deals with Sarcoma 180 solid tumor. Nature of the data set: In vivo test on Sarcoma 180 solid tumor transplanted mice. Further details: species or system mouse (ddY female). As to conditions: for Average tumor weight (mean ± SD, g): once a day over 10 days from 6th day, tumor taken out 30 days after transplantation; for Percent inhibition: tumor weight, 30 days after transplantation. How it is done: 2×10^6 Sarcoma 180 cells are transplanted subcutaneously in the back of each of 6-week old ddY female mice. Over 10 days from the 6th day after the tumor transplantation in groups each consisting of 6 mices, the test compound (which is dissolved in propylene glycol and diluted with a phosphate buffer solution such that the final concentration of propylene glycol becomes 20% or less) is continuously administered in the abdominal cavity once a day. Thirty days after the tumor transplantation, the tumor is taken out. Its weight is measured, and an average tumor weight and percent inhibition* are measured. [formula]

A further data set is described as follows: Acute toxicity test. On the set-up: species or system mouse (ddY male). As to conditions: mouse, in vivo, mortality for 1 week, Litchfield-Wilcoxon method. How it is done: The test compound is administered to each 5-week old ddY male mouse, and mortality is observed for 1 week. A 50% lethal dose (LD50) is calculated from the number of mice died in each group by a Litchfield-Wilcoxon method. The test compound (compound (a)) is suspended in 10% propylene glycol. Ten dilution gradients are prepared from the maximum concentration 80 mg/kg at a ratio of 1.2, and the test is carried out.

Data set [1] deals with Sarcoma 180 ascites tumor. The experiment in a line: In vivo test on Sarcoma 180 ascites tumor transplanted mice. As to conditions: once a day over 7 days; for Average number of survival days (mean ± SD): 6 mice per group; for Cured example: groups of 6 mice. On the set-up: species or system mouse (ddY male). How it is done:
1×10^6 Sarcoma 180 cells are transplanted in an abdominal cavity of each of 6-week old ddY male mice. Over 7 days after the first day of transplantation of tumor cells in groups each consisting of 6 mice, the test compound (which is dissolved in propyplene glycol and diluted with a phosphate buffer solution such that the final concentration of propylene glycol becomes 20% or less) is administered in the abdominal cavity once a day, and an average number of survival days and percent prolongation* are measured. [formula]

Data set [2] concerns Adriamycin-resistant mouse leukemic cells P388/ADR. Nature of the data set: In vitro tumor cell proliferation inhibiting test (Adriamycin-resistant mouse leukemic cells P388/ADR). Type of data set: cell-based. As to conditions: 48 h, 2×10^5, RPMI 1640 with 10% bovine fetal serum, 2 days, read-out: 50% proliferation inhibitory concentration: IC50. How it is done:
2×10^5 Adriamycin-resistant mouse leukemic cells P388/ADR are suspended in a RPMI 1640 culture medium containing 10% of a bovine fetal serum, and cultured for 2 days in the presence of a test compound (the test compound is dissolved in dimethyl sulfoxide such that the concentration becomes 1 mg/ml, and this is diluted with a phosphate buffer solution). An influence on cell proliferation is investigated, and 50% proliferation inhibitory concentration: IC50 value (μg/ml) is determined.

With `COc1cc2c(c(OC)c1OC)-c1ccc(OC)c(=O)cc1C(NC(=O)[C@@H]1COC(C)(C)O1)CC2` (stereo partly shown) [Compound 1a, Deacetylcolchicine-glyceric Acid Acetonideamide], the “Average tumor weight (mean ± SD, g)” value with Sarcoma 180 solid tumor (0.625 μg/kg i.p.) is on record as 0.71 ± 0.38 g; with Sarcoma 180 solid tumor (1.25 μg/kg i.p.), 0.88 ± 0.78 g; in the data set with Sarcoma 180 solid tumor (2.5 μg/kg i.p.) it was 0.63 ± 0.51 g; with Sarcoma 180 solid tumor (5.0 μg/kg i.p.), 0.60 ± 0.52 g. The Percent inhibition was found to be 49.6% in the data set on Sarcoma 180 solid tumor (0.625 μg/kg i.p.), 47.6% in the data set with Sarcoma 180 solid tumor (1.25 μg/kg i.p.), 55.3% in the data set on Sarcoma 180 solid tumor (2.5 μg/kg i.p.) and 57.4% in the data set on Sarcoma 180 solid tumor (5.0 μg/kg i.p.). The LD50 – broadly, the dose expected to kill half of the subjects tested – at 168 h in “Acute toxicity test” (ip, intraperitoneal) was determined as 42 mg/kg; in the data set “Acute toxicity test” (intravenous), 38 mg/kg. In addition, the Percent prolongation in data set [1] (0.31 mg/kg i.p.) turned out to be 188%; in data set [1] (0.63 mg/kg i.p.) it was 281%; in data set [1] (1.25 mg/kg i.p.), 277%; in data set [1] (2.5 mg/kg i.p.), 333%. The “Average number of survival days (mean ± SD)” value (“Average number … (mean ± SD)” below) in data set [1] (0.31 mg/kg i.p.) came to 36.0 ± 8.0 days; in data set [1] (0.63 mg/kg i.p.), 47.7 ± 11.1 days; in data set [1] (1.25 mg/kg i.p.), 47.2 ± 11.5 days; in data set [1] (2.5 mg/kg i.p.), 54.2 ± 11.6 days. The Cured example in data set [1] (0.63 mg/kg i.p.) was 1; in data set [1] (1.25 mg/kg i.p.), 2; in data set [1] (2.5 mg/kg i.p.), 4. Further, the IC50 in data set [2] came out at 0.036 µg/mL (≈ 0.0741 µM).
Consider `COc1cc2c(c(OC)c1OC)-c1ccc(OC)c(=O)cc1C(NC(=O)[C@H]1O[C@H](OC(C)=O)[C@H](O)[C@@H](O)[C@@H]1OC(C)=O)CC2` (stereo partly shown) [Compound 4, Deacetylcolchicine-glucuronic acid diacetateamide], for which the IC50 in data set [2] amounted to 0.034 µg/mL.
In the case of `COc1cc2c(c(OC)c1OC)-c1ccc(OC)c(=O)cc1C(NC(=O)[C@H]1O[C@H](O)[C@H](O)[C@@H](O)[C@@H]1O)CC2` (stereo partly shown) [Compound 5, N-(5,6,7,9-tetrahydro-1,2,3,10-tetramethoxy-9-oxobenzo[a]heptalen-7-yl)glucuroneamide], the IC50 in data set [2] stood at 0.037 µg/mL (≈ 0.0693 µM).
For `COc1cc2c(c(OC)c1OC)-c1ccc(OC)c(=O)cc1C(NC(=O)[C@H]1COC(C)(C)O1)CC2` (stereo partly shown) [Compound 1b, Deacetylcolchicine-glyceric Acid Acetonideamide], in data set [1] (1.25 mg/kg i.p.), the Percent prolongation came out at 240%, the “Average number … (mean ± SD)” value is 42.5 ± 15.4 days and the Cured example was 1. For the same molecule, in data set [1] (2.5 mg/kg i.p.), the Percent prolongation came to 356%, the “Average number … (mean ± SD)” value is reported as 57.0 ± 7.3 days and the Cured example is given as 5. Also, in data set [1] (5 mg/kg i.p.), the Percent prolongation was 356%, the “Average number … (mean ± SD)” value turned out to be 57.0 ± 5.3 days and the Cured example was determined as 4. Moreover, the IC50 in data set [2] came to 0.066 µg/mL (≈ 0.136 µM).

The values are drawn from patent US5220002A, “Deacetylcolchicine derivatives” (Ohgen Research Laboratories, Ltd., priority 1990, dated 1993).
